The values below come from BindingDB's records for doi:10.1021/jm9704863 (Cor Therapeutics, 1998).

The structures appear in SMILES notation.

One may read the IC50 as the concentration needed to halve the response being measured.

Target in the first test: not listed separately
Kind of test: Inhibition of 20 uM ADP-induced platelet aggregation in human platelet-rich plasma.
As for `N=C(N)c1ccc2oc(C(=O)NCCC(=O)NC[C@H](NS(=O)(=O)c3ccc(I)cc3)C(=O)O)cc2c1` [(S)-3-{3-[(5-Carbamimidoyl-benzofuran-2-carbonyl)-amino]-propionylamino}-2-(4-iodo-benzenesulfonylamino)-propionic acid], 25 nM corresponded to half-maximal inhibition (IC50).
Still for that read-out and setting: under `CN(C)c1cccc2c(S(=O)(=O)N[C@@H](CNC(=O)CCNC(=O)c3cc4cc(C(=N)N)ccc4o3)C(=O)O)cccc12` [(S)-3-{3-[(5-Carbamimidoyl-benzofuran-2-carbonyl)-amino]-propionylamino}-2-(5-dimethylamino-naphthalene-1-sulfonylamino)-propionic acid] stands 65 nM.

In the next test the target is Integrin alpha-IIb/beta-3 (Homo sapiens, UniProt P08514+P05106). The test is described as follows: Inhibition of platelet aggregation induced by 20 uM adenosine 5'-diphosphate (ADP) in human platelet rich plasma (h-PRP).
Chain of Integrin alpha-IIb/beta-3 (P05106 27-788 limits assumed): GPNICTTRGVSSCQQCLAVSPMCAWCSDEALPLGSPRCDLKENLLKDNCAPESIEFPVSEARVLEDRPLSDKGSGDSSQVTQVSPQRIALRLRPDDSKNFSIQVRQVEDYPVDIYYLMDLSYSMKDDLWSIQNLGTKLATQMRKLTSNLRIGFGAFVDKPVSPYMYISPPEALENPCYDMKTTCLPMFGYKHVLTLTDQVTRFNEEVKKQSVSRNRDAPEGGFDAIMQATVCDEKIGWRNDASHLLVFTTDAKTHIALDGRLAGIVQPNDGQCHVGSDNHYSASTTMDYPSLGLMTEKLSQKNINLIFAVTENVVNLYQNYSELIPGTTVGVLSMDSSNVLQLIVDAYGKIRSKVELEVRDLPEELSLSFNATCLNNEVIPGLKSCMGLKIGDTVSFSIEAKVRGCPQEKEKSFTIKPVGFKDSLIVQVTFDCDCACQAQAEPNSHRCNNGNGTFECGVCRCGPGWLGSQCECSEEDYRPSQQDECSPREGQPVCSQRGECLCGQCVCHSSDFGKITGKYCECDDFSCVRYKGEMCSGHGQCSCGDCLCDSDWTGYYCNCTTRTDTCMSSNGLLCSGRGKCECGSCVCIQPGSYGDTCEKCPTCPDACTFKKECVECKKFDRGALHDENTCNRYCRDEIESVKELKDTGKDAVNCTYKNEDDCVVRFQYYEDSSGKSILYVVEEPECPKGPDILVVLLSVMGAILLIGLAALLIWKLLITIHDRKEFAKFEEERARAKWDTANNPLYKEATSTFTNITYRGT
Chain of Integrin alpha-IIb/beta-3 (P08514 32-887 limits assumed): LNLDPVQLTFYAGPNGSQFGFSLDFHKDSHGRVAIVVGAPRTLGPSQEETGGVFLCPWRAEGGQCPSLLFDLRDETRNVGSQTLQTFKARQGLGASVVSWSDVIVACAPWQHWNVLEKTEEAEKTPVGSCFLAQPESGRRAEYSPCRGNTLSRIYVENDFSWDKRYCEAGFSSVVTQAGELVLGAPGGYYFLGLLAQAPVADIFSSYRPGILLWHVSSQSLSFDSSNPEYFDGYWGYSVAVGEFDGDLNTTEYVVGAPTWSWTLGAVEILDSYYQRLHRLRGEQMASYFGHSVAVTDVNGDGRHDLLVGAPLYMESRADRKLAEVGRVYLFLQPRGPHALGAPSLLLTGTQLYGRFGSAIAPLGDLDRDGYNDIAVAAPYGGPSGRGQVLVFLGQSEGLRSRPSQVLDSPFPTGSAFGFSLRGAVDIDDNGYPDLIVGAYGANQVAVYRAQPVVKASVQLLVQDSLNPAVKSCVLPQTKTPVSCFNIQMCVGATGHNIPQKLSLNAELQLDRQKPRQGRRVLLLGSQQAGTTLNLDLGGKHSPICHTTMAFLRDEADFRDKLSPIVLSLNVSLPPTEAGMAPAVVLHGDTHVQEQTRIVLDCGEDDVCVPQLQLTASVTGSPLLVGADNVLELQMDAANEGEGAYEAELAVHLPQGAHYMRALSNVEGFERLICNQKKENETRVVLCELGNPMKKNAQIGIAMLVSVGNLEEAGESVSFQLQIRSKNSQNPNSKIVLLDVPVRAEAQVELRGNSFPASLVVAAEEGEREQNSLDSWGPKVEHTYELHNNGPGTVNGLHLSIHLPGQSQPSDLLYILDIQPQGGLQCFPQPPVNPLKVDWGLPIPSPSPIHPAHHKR
Chain of Integrin alpha-IIb/beta-3 (P08514 891-1039 limits assumed): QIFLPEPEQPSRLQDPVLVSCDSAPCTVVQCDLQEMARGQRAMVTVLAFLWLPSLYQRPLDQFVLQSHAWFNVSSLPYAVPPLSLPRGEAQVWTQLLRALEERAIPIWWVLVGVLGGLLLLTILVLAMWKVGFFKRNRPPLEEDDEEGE
`CCCCS(=O)(=O)NC(CNC(=O)CCNC(=O)c1[nH]nc2cc(C(=N)N)ccc12)C(=O)O` (configuration not stated) [2-(Butane-1-sulfonylamino)-3-{3-[(6-carbamimidoyl-1H-indazole-3-carbonyl)-amino]-propionylamino}-propionic acid] registered an IC50 of 53 nM.
On the same count and under the same terms, under `CCCCS(=O)(=O)NC(CNC(=O)CCNC(=O)c1cc2ccc(C(=N)N)cc2[nH]1)C(=O)O` (configuration not stated) [2-(Butane-1-sulfonylamino)-3-{3-[(6-carbamimidoyl-1H-indole-2-carbonyl)-amino]-propionylamino}-propionic acid] stands 55 nM.
In the case of `CC(C)(NC(=O)c1cc2cc(C(=N)N)ccc2[nH]1)C(=O)NC(CC(=O)O)c1ccccc1` (configuration not stated) [3-{2-[(5-Carbamimidoyl-1H-indole-2-carbonyl)-amino]-2-methyl-propionylamino}-3-phenyl-propionic acid], the IC50 was 250000 nM.
The same measure, in the same setting: under `N=C(N)c1ccc2[nH]c(C(=O)NCC(=O)NC(CC(=O)O)c3ccccc3)cc2c1` (configuration not stated) [3-{2-[(5-Carbamimidoyl-1H-indole-2-carbonyl)-amino]-acetylamino}-3-phenyl-propionic acid] stands 50000 nM.
Still for that read-out and setting: under `CN(CC(=O)NC(CC(=O)O)c1ccccc1)C(=O)c1cc2cc(C(=N)N)ccc2[nH]1` (configuration not stated) [3-{2-[(5-Carbamimidoyl-1H-indole-2-carbonyl)-methyl-amino]-acetylamino}-3-phenyl-propionic acid] stands 25000 nM; under `N=C(N)c1ccc2[nH]c(C(=O)NC(CC(=O)NC(CC(=O)O)c3ccccc3)C(F)(F)F)cc2c1` (configuration not stated) [3-{3-[(5-Carbamimidoyl-1H-indole-2-carbonyl)-amino]-4,4,4-trifluoro-butyrylamino}-3-phenyl-propionic acid], 50000 nM.
The same measure, in the same setting: under `N=C(N)c1ccc2[nH]c(C(=O)Nc3cccc(C(=O)NC(CC(=O)O)c4ccccc4)c3)cc2c1` (configuration not stated) [3-{3-[(5-Carbamimidoyl-1H-indole-2-carbonyl)-amino]-benzoylamino}-3-phenyl-propionic acid] stands 25000 nM; under `CC(CC(=O)NC(CC(=O)O)c1ccccc1)NC(=O)c1cc2cc(C(=N)N)ccc2[nH]1` (configuration not stated) [3-{3-[(5-Carbamimidoyl-1H-indole-2-carbonyl)-amino]-butyrylamino}-3-phenyl-propionic acid], 5000 nM.
In the case of `N=C(N)c1ccc2[nH]c(C(=O)NCCC(=O)NC(CC(=O)O)c3ccccc3)cc2c1` (configuration not stated) [3-{3-[(5-Carbamimidoyl-1H-indole-2-carbonyl)-amino]-propionylamino}-3-phenyl-propionic acid], the IC50 came out at 8000 nM.
In turn, `CN(CCC(=O)NC(CC(=O)O)c1ccccc1)C(=O)c1cc2cc(C(=N)N)ccc2[nH]1` (configuration not stated) [3-{3-[(5-Carbamimidoyl-1H-indole-2-carbonyl)-methyl-amino]-propionylamino}-3-phenyl-propionic acid] gave an IC50 of 5000 nM.
Compound `N=C(N)c1ccc2oc(C(=O)NCCC(=O)NC(CC(=O)O)c3cc(F)ccc3F)cc2c1` (configuration not stated) [3-{3-[(5-Carbamimidoyl-benzofuran-2-carbonyl)-amino]-propionylamino}-3-(2,5-difluoro-phenyl)-propionic acid] gave an IC50 of 300 nM.
The compound `N=C(N)c1ccc2oc(C(=O)NCCC(=O)NC(CC(=O)O)c3ccc(F)c(F)c3)cc2c1` (configuration not stated) [3-{3-[(5-Carbamimidoyl-benzofuran-2-carbonyl)-amino]-propionylamino}-3-(3,4-difluoro-phenyl)-propionic acid] came in with an IC50 of 500 nM.
In turn, `COc1ccc(C(CC(=O)O)NC(=O)CCNC(=O)c2cc3cc(C(=N)N)ccc3o2)cc1OC` (configuration not stated) [3-{3-[(5-Carbamimidoyl-benzofuran-2-carbonyl)-amino]-propionylamino}-3-(3,4-dimethoxy-phenyl)-propionic acid] registered a half-inhibitory concentration (IC50) of 300 nM.
Compound `N=C(N)c1ccc2oc(C(=O)NCCC(=O)NC(CC(=O)O)c3cc(F)cc(F)c3)cc2c1` (configuration not stated) [3-{3-[(5-Carbamimidoyl-benzofuran-2-carbonyl)-amino]-propionylamino}-3-(3,5-difluoro-phenyl)-propionic acid] showed a half-inhibitory concentration (IC50) of 350 nM.
`N=C(N)c1ccc2oc(C(=O)NCCC(=O)NC(CC(=O)O)c3ccccc3)cc2c1` (configuration not stated) [3-{3-[(5-Carbamimidoyl-benzofuran-2-carbonyl)-amino]-propionylamino}-3-phenyl-propionic acid] gave an IC50 of 250 nM.
With `N=C(N)c1ccc2oc(C(=O)NCCC(=O)NC(CC(=O)O)c3cccnc3)cc2c1` (configuration not stated) [3-{3-[(5-Carbamimidoyl-benzofuran-2-carbonyl)-amino]-propionylamino}-3-pyridin-3-yl-propionic acid], inhibition was half-maximal at 200 nM (IC50).
The same measure, in the same setting: under `N=C(N)c1ccc2oc(C(=O)NCCC(=O)NC(CC(=O)O)C(F)(F)F)cc2c1` (configuration not stated) [3-{3-[(5-Carbamimidoyl-benzofuran-2-carbonyl)-amino]-propionylamino}-4,4,4-trifluoro-butyric acid] stands 250 nM; under `N=C(N)c1ccc2oc(C(=O)NCCC(=O)NC(CCc3c[nH]c4ccccc34)CC(=O)O)cc2c1` (configuration not stated) [3-{3-[(5-Carbamimidoyl-benzofuran-2-carbonyl)-amino]-propionylamino}-5-(1H-indol-3-yl)-pentanoic acid], 600 nM.
Still for that read-out and setting: in the case of `C#CC(CC(=O)O)NC(=O)CCNC(=O)c1cc2cc(C(=N)N)ccc2o1` (configuration not stated) [3-{3-[(5-Carbamimidoyl-benzofuran-2-carbonyl)-amino]-propionylamino}-pent-4-ynoic acid] it was 300 nM; in that of `CN(CCC(=O)NC(CC(=O)O)c1ccccc1)C(=O)c1cc2cc(C(=N)N)ccc2o1` (configuration not stated) [3-{3-[(5-Carbamimidoyl-benzofuran-2-carbonyl)-methyl-amino]-propionylamino}-3-phenyl-propionic acid], 250 nM.
Compound `N=C(N)c1ccc2c(C(=O)NCCC(=O)NC(CC(=O)O)c3ccccc3)[nH]nc2c1` (configuration not stated) [3-{3-[(6-Carbamimidoyl-1H-indazole-3-carbonyl)-amino]-propionylamino}-3-phenyl-propionic acid] returned an IC50 of 630 nM.
The same measure, in the same setting: in the case of `N=C(N)c1ccc2cc(C(=O)NCCC(=O)NC(CC(=O)O)c3ccccc3)[nH]c2c1` (configuration not stated) [3-{3-[(6-Carbamimidoyl-1H-indole-2-carbonyl)-amino]-propionylamino}-3-phenyl-propionic acid] it was 1350 nM; in that of `N=C(N)c1ccc2c(C(=O)NCCC(=O)NC(CC(=O)O)c3ccccc3)c[nH]c2c1` (configuration not stated) [3-{3-[(6-Carbamimidoyl-1H-indole-3-carbonyl)-amino]-propionylamino}-3-phenyl-propionic acid], 2200 nM.
Still for that read-out and setting: in the case of `N=C(N)c1ccc2[nH]c(C(=O)N3CCC(C(=O)NC(CC(=O)O)c4ccccc4)CC3)cc2c1` (configuration not stated) [3-{[1-(5-Carbamimidoyl-1H-indole-2-carbonyl)-piperidine-4-carbonyl]-amino}-3-phenyl-propionic acid] it was 25000 nM.
Still for that read-out and setting: under `N=C(N)c1ccc2oc(C(=O)N3CCCC(C(=O)NC(CC(=O)O)c4ccccc4)C3)cc2c1` (configuration not stated) [3-{[1-(5-Carbamimidoyl-benzofuran-2-carbonyl)-piperidine-3-carbonyl]-amino}-3-phenyl-propionic acid] stands 250 nM; under `N=C(N)c1ccc2oc(C(=O)N3Cc4ccccc4CC3C(=O)NC(CC(=O)O)c3ccccc3)cc2c1` (configuration not stated) [3-{[2-(5-Carbamimidoyl-benzofuran-2-carbonyl)-1,2,3,4-tetrahydro-isoquinoline-3-carbonyl]-amino}-3-phenyl-propionic acid], 5000 nM; under `N=C(N)c1ccc2oc(C(=O)N3CCC[C@@H]3C(=O)NC(CC(=O)O)c3ccccc3)cc2c1` (stereo partly drawn) [3-{[(R)-1-(5-Carbamimidoyl-benzofuran-2-carbonyl)-pyrrolidine-2-carbonyl]-amino}-3-phenyl-propionic acid], 2000 nM.
For `N=C(N)c1ccc2[nH]c(C(=O)N3CCC[C@H]3C(=O)NC(CC(=O)O)c3ccccc3)cc2c1` (stereo partly drawn) [3-{[(S)-1-(5-Carbamimidoyl-1H-indole-2-carbonyl)-pyrrolidine-2-carbonyl]-amino}-3-phenyl-propionic acid], the half-maximal inhibitory concentration (IC50) was found to be 5000 nM.
On the same count and under the same terms, in the case of `CCCCS(=O)(=O)N[C@@H](CNC(=O)CCNC(=O)c1cc2cc(C(=N)N)ccc2o1)C(=O)O` [(S)-2-(Butane-1-sulfonylamino)-3-{3-[(5-carbamimidoyl-benzofuran-2-carbonyl)-amino]-propionylamino}-propionic acid] it was 35 nM.
The same measure, in the same setting: in the case of `N=C(N)c1ccc2oc(C(=O)NCCC(=O)NC[C@H](N)C(=O)O)cc2c1` [(S)-2-Amino-3-{3-[(5-carbamimidoyl-benzofuran-2-carbonyl)-amino]-propionylamino}-propionic acid] it was 200 nM.
